Experimental data published in patent US9469854B2, “Pharmaceutical composition for treating liver diseases” (Academia Sinica, priority 2014, dated 2016).

Experiments:
hsa-miR-21-3p = assay: miRNA microarray profiling of berberine-treated primary human hepatocytes; assay type: cell-based; details: PHHs from 3 donors, 40 μM berberine, 2 h
Experimental: A 50 mM stock solution of berberine chloride (Sigma-Aldrich) was prepared in dimethyl sulfoxide (DMSO). […]
Total RNA was extracted using a TRIZOL reagent (Invitrogen) according to the manufacturer's protocol. The total RNA quantity was measured using a NanoDrop ND-1000 spectrophotometer (Nanodrop Technologies). […]
The miRNA profiling was performed using an Agilent human miRNA Microarray R14 V2 containing 866 human miRNAs. […] Microarrays were scanned following the Agilent microarray scanner protocol, and image analysis and quantification were performed using the Agilent Feature Extraction software (Agilent Technologies). […]

ACACB [1] = assay: qRT-PCR mRNA expression in HepG2 cells; assay type: cell-based, human
Experimental: (§1) The human HepG2 cells and HEK 293T cells used in the following examples were originally obtained from the American Tissue Culture Collection (ATCC, USA). The human HCC HepG2 cell line was cultured in Minimum Essential Medium Eagle (Sigma) supplemented with 10% fetal bovine serum (FBS) (Invitrogen), 2.2 g/L of sodium bicarbonate (Sigma), 0.1 mM of non-essential amino acids (Caisson), 1 mM of sodium pyruvate (Invitrogen), and 10 of ml/L penicillin-streptomycin-amphotericin solution (Biological Industries). Human HEK-293T cells were maintained in high-glucose Dulbecco's modified eagle medium (Invitrogen) supplemented with 10% FBS and 3.7 g/L of sodium bicarbonate (Sigma). Both cell lines were cultured at 37° C. and 5% CO2. A 50 mM stock solution of berberine chloride (Sigma-Aldrich) was prepared in dimethyl sulfoxide (DMSO). Cells were treated with 40 μM of berberine chloride or 0.08% DMSO as the control. For induction of lipid droplets formation in cultured cells, 200 μM of oleic acid (Sigma-Aldrich) was added into the culture medium for 24 h. Total RNA was extracted using a TRIZOL reagent (Invitrogen) according to the manufacturer's protocol. The total RNA quantity was measured using a NanoDrop ND-1000 spectrophotometer (Nanodrop Technologies). The total RNA quality and integrity were assayed using an Agilent 2100 bioanalyzer with an RNA 6000 nano kit (Agilent Technologies). Total RNAs (1 μg) were reverse-transcribed into cDNA by using M-MuLV Reverse Transcriptase (Thermo) and Oligo(dT)12-18 primers (Invitrogen) according to the manufacturer's protocol. The cDNA were then used for a real-time PCR with a LightCycler 480 SYBR Green I Master (Roche) by using primers shown in the following Table 1. The gene expression levels were normalized to GAPDH levels. […] Cells were incubated for 24 h or 48 h with a microRNA mimic or inhibitor prior to RNA purification for gene expression analysis, and were incubated for 72 h for protein expression analysis.

MAT1A = assay: qRT-PCR mRNA expression in HepG2 cells; assay type: cell-based, human
Experimental: as §1

MAT2A = assay: qRT-PCR mRNA expression in HepG2 cells; assay type: cell-based, human; details: for decrease in mRNA expression of MAT2A: HepG2, 50 nM mimic transfection
Experimental: as §1

MAT2B = assay: qRT-PCR mRNA expression in HepG2 cells; assay type: cell-based, human
Experimental: as §1

ACACA = assay: qRT-PCR mRNA expression in primary human hepatocytes; assay type: cell-based; details: PHH
Experimental: (§2) The primary human hepatocytes from Caucasian donors were purchased from Invitrogen and cultured following the manufacturer's instructions. The hepatocytes were thawed and transferred into cryopreserved hepatocytes recovery medium (CM7000, Invitrogen), centrifuging at room temperature, 100×g for 10 min. Then, the hepatocytes were diluted to seeding density with plating medium (CM3000, Invitrogen) and added into collagen I-coated plates (Invitrogen). These plates were incubated at 37° C. for 4-6 hours under 5% CO2 for forming a monolayer. Then, plating medium was replaced by overlay incubation medium (CM4000 and 0.35 mg/mL Geltrex™ Matrix, Invitrogen), and the incubation medium was replaced daily. In the following examples, hepatocytes form 3 to 4 donors were used for experiments. A 50 mM stock solution of berberine chloride (Sigma-Aldrich) was prepared in dimethyl sulfoxide (DMSO). Cells were treated with 40 μM of berberine chloride or 0.08% DMSO as the control. For induction of lipid droplets formation in cultured cells, 200 μM of oleic acid (Sigma-Aldrich) was added into the culture medium for 24 h. Total RNA was extracted using a TRIZOL reagent (Invitrogen) according to the manufacturer's protocol. The total RNA quantity was measured using a NanoDrop ND-1000 spectrophotometer (Nanodrop Technologies). The total RNA quality and integrity were assayed using an Agilent 2100 bioanalyzer with an RNA 6000 nano kit (Agilent Technologies). Total RNAs (1 μg) were reverse-transcribed into cDNA by using M-MuLV Reverse Transcriptase (Thermo) and Oligo(dT)12-18 primers (Invitrogen) according to the manufacturer's protocol. The cDNA were then used for a real-time PCR with a LightCycler 480 SYBR Green I Master (Roche) by using primers shown in the following Table 1. The gene expression levels were normalized to GAPDH levels.

ACACB [2] = assay: as above; assay type: cell-based; details: PHH
Experimental: as §2

DGAT2 = assay: as above; assay type: cell-based; details: PHH
Experimental: as §2

HLCS = assay: as above; assay type: cell-based
Experimental: as §2

MTOR = assay: as above; assay type: cell-based; details: for decrease in MTOR expression: 50 nM mimic transfection
Experimental: as §2

RPTOR = assay: as above; assay type: cell-based; details: for decrease in RPTOR expression: 50 nM mimic transfection
Experimental: as §2

[3] = HepG2, 40 μM berberine, up to 8 h
[4] = HepG2, 50 nM mimic transfection, 48 h
[5] = 24 h, cells not named in b149 (primary human hepatocytes)

COc1ccc2cc3[n+](cc2c1OC)CCc1cc2c(cc1-3)OCO2 [berberine]
hsa-miR-21-3p expression increase (miRNA microarray), mean (hsa-miR-21-3p): 3.36 fold
ACACB expression (ACACB [1]; HepG2, berberine (data not shown)): consistently decreased
MAT1A mRNA expression change (MAT1A; [3]): did not change substantially
MAT2A mRNA level decrease (MAT2A; HepG2, 40 μM berberine, 2 h vs 0.08% DMSO): 1.8 fold
MAT2A mRNA level decrease (MAT2A; HepG2, 40 μM berberine, 4 h (lowest value) vs 0.08% DMSO): 3.8 fold
MAT2A mRNA level change (given as increase) (MAT2A; HepG2, 40 μM berberine, 8 h vs 0.08% DMSO): 2.2 fold
MAT2B mRNA expression change (MAT2B; [3]): did not change substantially
ACACA expression decrease (ACACA; 40 μM berberine, 8 h): 2.1 fold
mRNA expression of ACACB (ACACB [2]; 40 μM berberine, 4-8 h): decreases
changes in DGAT2 expression levels (DGAT2; 40 μM berberine, 2-8 h): not significant
mRNA expression of HLCS (HLCS; PHH, 40 μM berberine, 4-8 h): decreases
mRNA expression of MTOR (MTOR; PHH, 40 μM berberine, 4-8 h): decreases
mRNA expression of RPTOR (RPTOR; PHH, 40 μM berberine, 4-8 h): decreases

hsa-miR-21-3p (CAACACCAGUCGAUGGGCUGU; listed as RNA, chemistry not given here) [miR-21-3p mimic]
decrease in mRNA expression of ACACB (ACACB [1]; HepG2, mimic transfection, 24 h): 50%
decrease in mRNA expression of MAT1A (MAT1A; [4]): but not in that of MAT1A
decrease in mRNA expression of MAT2A (MAT2A; 24 hours): > 50%
decrease in mRNA expression of MAT2A (MAT2A; 48 h): > 50%
decrease in mRNA expression of MAT2B (MAT2B; [4]): > 50%
ACACA expression decrease (ACACA; 50 nM mimic transfection, 48 h): 1.6 fold
ACACB expression decrease (ACACB [2]; 50 nM mimic transfection, 48 h): 1.8 fold
decrease in mRNA expression levels of DGAT2 (DGAT2; mimic transfection, 48 h): 1.5 fold
decrease in HLCS expression (HLCS; 50 nM mimic transfection, 48 h, cells not given): 1.5 fold
decrease in MTOR expression (MTOR; [5]): 1.4 fold
decrease in MTOR expression (MTOR; 48 h, cells not given): 2.5 fold
decrease in RPTOR expression (RPTOR; [5]): 1.6 fold
decrease in RPTOR expression (RPTOR; 48 h, cells not given): 2.2 fold
